# Test results as given in patent US8916599B2, “1H-benz imidazole-5-carboxamides as anti-inflammatory agents” (Orexo AB, priority 2008, dated 2014).
# Target: T1, recombinant human mPGES-1 (Homo sapiens, UniProt O14684)
# T1 construct: made in house; host or cells: Rosetta E. coli (microsomal/membrane fraction)
# T1 sequence (O14684 1-152): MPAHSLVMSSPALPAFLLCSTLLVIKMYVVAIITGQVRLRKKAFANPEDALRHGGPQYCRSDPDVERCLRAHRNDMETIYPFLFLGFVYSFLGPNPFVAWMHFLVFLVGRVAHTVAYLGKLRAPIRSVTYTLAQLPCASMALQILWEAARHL
# Assay: mPGES-1 inhibition test (microsomes, PGH2 substrate, HTRF detection of PGE2)
# Type: biochemical
# Conditions: inhibition of mPGES-1 at 10 μM
# Summary of the method: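 Microsomes from E. coli Rosetta expressing the enzyme, in 0.1 M KPi pH 7.4 with 2.5 mM GSH, were preincubated 25 min at room temperature with inhibitor in DMSO. PGH2 was added, the reaction stopped after one minute with acidified FeCl2, and PGE2 quantified by HTRF after 750-fold dilution.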
row,SMILES,inhibition at 10 µM
1,"Cn1c(Nc2c(Cl)cccc2Cl)nc2cc(C(=O)N[C@H]3CC[C@@H](C(F)(F)F)CC3)c(F)cc21 [Example 170, 2-(2,6-Dichloro-phenylamino)-6-fluoro-1-methyl-1H-benzimidazole-5-carboxylic acid (cis-4-trifluoromethyl-cyclohexyl)-amide]",100%
2,"Cn1c(Nc2c(F)cccc2F)nc2cc(C(=O)N[C@H]3CC[C@H](C(F)(F)F)CC3)ccc21 [Example 171, 2-(2,6-Difluoro-phenylamino)-1-methyl-1H-benzimidazole-5-carboxylic acid (trans-4-trifluoromethyl-cyclohexyl)-amide]",94%
3,"Cn1c(Nc2c(F)cccc2F)nc2cc(C(=O)NC3CCC(C)(C)CC3)ccc21 [Example 172, 2-(2,6-Difluoro-phenylamino)-1-methyl-1H-benzimidazole-5-carboxylic acid (4,4-dimethyl-cyclohexyl)-amide]",97%
4,"Cn1c(Nc2c(F)cccc2F)nc2cc(C(=O)Nc3ccc(Br)cc3)ccc21 [Example 173, 2-(2,6-Difluoro-phenylamino)-1-methyl-1H-benzimidazole-5-carboxylic acid (4-bromo-phenyl)-amide]",97%
5,"C[C@@H]1CCC(NC(=O)c2cc3nc(Nc4c(Cl)cccc4Cl)n(C)c3cc2F)C1 (stereo partly drawn) [Example 175, 2-(2,6-Dichloro-phenylamino)-6-fluoro-1-methyl-1H-benzimidazole-5-carboxylic acid ((3R)-3-methyl-cyclopentyl)-amide]",100%
6,"COCCn1c(Nc2c(Cl)cccc2Cl)nc2cc(C(=O)NC3CCC(C)(C)CC3)ccc21 [Example 180, 2-(2,6-Dichloro-phenylamino)-1-(2-methoxy-ethyl)-1H-benzimidazole-5-carboxylic acid (4,4-dimethyl-cyclohexyl)-amide]",98%
7,"COCCn1c(Nc2c(Cl)cccc2Cl)nc2cc(C(=O)Nc3cccc(Cl)c3)ccc21 [Example 181, 2-(2,6-Dichloro-phenylamino)-1-(2-methoxy-ethyl)-1H-benzimidazole-5-carboxylic acid (3-chloro-phenyl)-amide]",100%
8,"Cc1cc(NC(=O)c2ccc3[nH]c(Nc4c(Cl)cccc4Cl)nc3c2)ncc1Br [Example 182, 2-(2,6-Dichloro-phenylamino)-1H-benzimidazole-5-carboxylic acid (5-bromo-4-methyl-pyridin-2-yl)-amide]",99%
9,"Cc1cc(Br)cnc1NC(=O)c1ccc2[nH]c(Nc3c(Cl)cccc3Cl)nc2c1 [Example 183, 2-(2,6-Dichloro-phenylamino)-1H-benzimidazole-5-carboxylic acid (5-bromo-3-methyl-pyridin-2-yl)-amide]",100%
10,"O=C(Nc1cc(Br)ccn1)c1ccc2[nH]c(Nc3c(Cl)cccc3Cl)nc2c1 [Example 184, 2-(2,6-Dichloro-phenylamino)-1H-benzimidazole-5-carboxylic acid (4-bromo-pyridin-2-yl)-amide]",98%
11,"O=C(Nc1cccc(Cl)n1)c1ccc2[nH]c(Nc3c(Cl)cccc3Cl)nc2c1 [Example 185, 2-(2,6-Dichloro-phenylamino)-1H-benzimidazole-5-carboxylic acid (6-chloro-pyridin-2-yl)-amide]",98%
12,"O=C(Nc1ncccc1Cl)c1ccc2[nH]c(Nc3c(Cl)cccc3Cl)nc2c1 [Example 186, 2-(2,6-Dichloro-phenylamino)-1H-benzimidazole-5-carboxylic acid (3-chloro-pyridin-2-yl)-amide]",91%
13,"O=C(Nc1cc(Cl)nc(Cl)c1)c1ccc2[nH]c(Nc3c(Cl)cccc3Cl)nc2c1 [Example 187, 2-(2,6-Dichloro-phenylamino)-1H-benzimidazole-5-carboxylic acid (2,6-dichloro-pyridin-4-yl)-amide]",98%
14,"COc1ccnc(NC(=O)c2ccc3[nH]c(Nc4c(Cl)cccc4Cl)nc3c2)c1 [Example 188, 2-(2,6-Dichloro-phenylamino)-1H-benzimidazole-5-carboxylic acid (4-methoxy-pyridin-2-yl)-amide]",96%
15,"Cc1cc(NC(=O)c2ccc3[nH]c(Nc4c(Cl)cccc4Cl)nc3c2)ncc1F [Example 189, 2-(2,6-Dichloro-phenylamino)-1H-benzimidazole-5-carboxylic acid (5-fluoro-4-methyl-pyridin-2-yl)-amide]",94%
16,"O=C(Nc1ncccc1C(F)(F)F)c1ccc2[nH]c(Nc3c(Cl)cccc3Cl)nc2c1 [Example 190, 2-(2,6-Dichloro-phenylamino)-1H-benzimidazole-5-carboxylic acid (3-trifluoromethyl-pyridin-2-yl)-amide]",75%
17,"O=C(Nc1ccc(C(F)(F)F)cn1)c1ccc2[nH]c(Nc3c(Cl)cccc3Cl)nc2c1 [Example 191, 2-(2,6-Dichloro-phenylamino)-1H-benzimidazole-5-carboxylic acid (5-trifluoromethyl-pyridin-2-yl)-amide]",99%

row,SMILES,inhibition at 10 µM
1,"O=C(Nc1ccc(Br)cn1)c1ccc2nc(Nc3c(F)cccc3Cl)[nH]c2c1 [Example 192, 2-(2-Chloro-6-fluoro-phenylamino)-3H-benzimidazole-5-carboxylic acid (5-bromo-pyridin-2-yl)-amide]",100%
2,"Cc1cc(NC(=O)c2ccc3nc(Nc4c(Cl)cccc4Cl)[nH]c3c2)ccn1 [Example 193, 2-(2,6-Dichloro-phenylamino)-3H-benzimidazole-5-carboxylic acid (2-methyl-pyridin-4-yl)-amide]",99%
3,"COc1cccc(NC(=O)c2ccc3nc(Nc4c(Cl)cccc4Cl)[nH]c3c2)n1 [Example 194, 2-(2,6-Dichloro-phenylamino)-3H-benzimidazole-5-carboxylic acid (6-methoxy-pyridin-2-yl)-amide]",98%
4,"COc1ccc(NC(=O)c2ccc3nc(Nc4c(Cl)cccc4Cl)[nH]c3c2)nc1 [Example 195, 2-(2,6-Dichloro-phenylamino)-3H-benzimidazole-5-carboxylic acid (5-methoxy-pyridin-2-yl)-amide]",92%
5,COc1cc2nc(Nc3c(Cl)cccc3Cl)[nH]c2cc1C(=O)Nc1ccc(Cl)c(F)c1 [Example 197],100%
6,"Cc1cc(NC(=O)c2ccc3nc(Nc4c(Cl)cccc4Cl)[nH]c3c2)cc(Cl)n1 [Example 198, 2-(2,6-Dichloro-phenylamino)-3H-benzimidazole-5-carboxylic acid (2-chloro-6-methyl-pyridin-4-yl)-amide]",100%
7,"COc1cc2nc(Nc3c(Cl)cccc3Cl)[nH]c2cc1C(=O)NC1CCCCC1 [Example 199, N-(Cyclohexyl)-2-(2,6-dichlorophenylamino)-6-methoxy-1H-benzimidazole-5-carboxamide]",100%
8,COc1cc2nc(Nc3c(Cl)cccc3Cl)[nH]c2cc1C(=O)NCc1ccccc1C(F)(F)F [Example 200],98%
9,"Cc1cc(C)nc(NC(=O)c2ccc3c(c2)nc(Nc2c(Cl)cccc2Cl)n3C)c1 [Example 201, 2-(2,6-Dichloro-phenylamino)-1-methyl-1H-benzimidazole-5-carboxylic acid (4,6-dimethyl-pyridin-2-yl)-amide]",100%
10,"Cc1cc(NC(=O)c2ccc3c(c2)nc(Nc2c(Cl)cccc2Cl)n3C)ncc1Cl [Example 202, 2-(2,6-Dichloro-phenylamino)-1-methyl-1H-benzimidazole-5-carboxylic acid (5-chloro-4-methyl-pyridin-2-yl)-amide]",100%
11,"Cn1c(Nc2c(Cl)cccc2Cl)nc2cc(C(=O)Nc3cc(C(F)(F)F)ccn3)ccc21 [Example 203, 2-(2,6-Dichloro-phenylamino)-1-methyl-1H-benzimidazole-5-carboxylic acid (4-trifluoromethyl-pyridin-2-yl)-amide]",100%
12,"CS(=O)(=O)NCCn1c(Nc2c(Cl)cccc2Cl)nc2cc(C(=O)Nc3cc(Cl)ccn3)ccc21 [Example 205, 2-(2,6-Dichloro-phenylamino)-1-(2-methanesulfonylamino-ethyl)-1H-benzimidazole-5-carboxylic acid (4-chloro-pyridin-2-yl)-amide]",97%
13,"CS(=O)(=O)NCCCn1c(Nc2c(Cl)cccc2Cl)nc2cc(C(=O)Nc3cc(Cl)ccn3)ccc21 [Example 206, 2-(2,6-Dichloro-phenylamino)-1-(3-methanesulfonylamino-propyl)-1H-benzimidazole-5-carboxylic acid (4-chloro-pyridin-2-yl)-amide]",100%
14,"O=C(Nc1cc(Cl)ccn1)c1ccc2c(c1)nc(Nc1c(Cl)cccc1Cl)n2C1CNC1 [Example 207, 2-(2,6-Dichloro-phenylamino)-1-azetidin-3-yl-1H-benzimidazole-5-carboxylic acid (4-chloro-pyridin-2-yl)-amide(trifluoro-acetate)]",97%
15,"NCCCn1c(Nc2c(Cl)cccc2Cl)nc2cc(C(=O)Nc3cc(Cl)ccn3)ccc21 [Example 208, 2-(2,6-Dichloro-phenylamino)-1-(3-amino-propyl)-1H-benzimidazole-5-carboxylic acid (4-chloro-pyridin-2-yl)-amide(trifluoro-acetate)]",100%
16,"O=C(Nc1cc(Cl)ccn1)c1ccc2c(c1)nc(Nc1c(Cl)cccc1Cl)n2CC1CNC1 [Example 209, 2-(2,6-Dichloro-phenylamino)-(1-azetidin-3-ylmethyl)-1H-benzimidazole-5-carboxylic acid (4-chloro-pyridin-2-yl)-amide (trifluoroacetate)]",100%
17,"Cn1c(Nc2c(Cl)cccc2Cl)nc2cc(C(=O)Nc3cc(Cl)ccn3)ccc21 [Example 210, 2-(2,6-Dichloro-phenylamino)-1-methyl-1H-benzimidazole-5-carboxylic acid (4-chloro-pyridin-2-yl)-amide]",100%
